Laboratory results published in US5750702A (priority 1996, dated 1998).

What follows are molecules tested against GABAa receptor (assay: GABAa receptor binding assay (displacement of 3H-RO15-1788 [3H-Flumazenil], rat cortical tissue)). Conditions: Table 2, 0.5 nM 3H-RO15-1788, 30 min at 4° C., nonspecific binding with diazepam.
Procedure: The pharmaceutical utility of compounds of this invention are indicated by the following assay for GABAa receptor binding activity.
Assays are carried out as described in Thomas and Tallman (J. Bio. Chem. 156: 9838-9842 J. Neurosci. 3: 433-440, 1983). Rat cortical tissue is dissected and homogenized in 25 volumes (w/v) of 0.05M Tris HCl buffer (pH 7.4 at 4° C.). The tissue homogenate is centrifuged in the cold (4°) at 20,000×g for 20'. The supernatant is decanted and the pellet is rehomogenized in the same volume of buffer and again centrifuged at 20,000×g. The supernatant is decanted and the pellet is frozen at -20° C. overnight. The pellet is then thawed and rehomogenized in 25 volume (original wt/vol) of buffer and the procedure is carried out twice. The pellet is finally resuspended in 50 volumes (w/vol of 0.05M Tris HCl buffer (pH 7.4 at […]).
Incubations contain […] of tissue homogenate, […] of radioligand 0.5 nM (^3 H-RO15-1788 [^3 H-Flumazenil] specific activity 80 Ci/mmol), drug or blocker and buffer to a total volume of […]. Incubations are carried for 30 min at 4° C. then are rapidly filtered through GFB filters to separate free and bound ligand. Filters are washed twice with fresh 0.05M Tris HCl buffer (pH 7.4 at 4° C.) and counted in a liquid scintillation counter. 1.0 mM diazepam is added to some tubes to determine nonspecific binding. Data are collected in triplicate determinations, averaged and % inhibition of total specific binding is calculated. Total Specific Binding=Total-Nonspecific. In some cases, the amounts of unlabeled drugs is varied and total displacement curves of binding are carried out. Data are converted to Ki values.

Which Ki does the source give for `COc1ccc(NC(=O)c2c[nH]c3c2C(=O)CCC3)cc1` [Compound 1, N-(4-methoxyphenyl)-4-oxo-4,5,6,7-tetrahydro-1H-indole-3-carboxamide] here?
Its Ki is 0.004 µM.

Which Ki does the source give for `COc1ccc(NC(=O)c2c[nH]c3cccc(O)c23)c(F)c1` [Compound 2, N-(2-fluoro-4-methoxyphenyl)-4-hydroxy-1H-indole-3-carboxamide] here?
The Ki was 0.43 µM.

Which Ki does the source give for `COc1ccc(NC(=O)c2c[nH]c3c2C(=O)CCC3)c(F)c1` [Compound 6, N-(2-Fluoro-4-methoxyphenyl)-4-oxo-4,5,6,7-tetrahydro-1H-indole-3-carboxamide] here?
Its Ki is 0.001 µM.

How did the Ki turn out when `COc1ccc(NC(=O)c2c[nH]c3cccc(OC)c23)cc1` [Compound 8, N-(4-Methoxyphenyl)-4-methoxy-1H-indole-3-carboxamide] was run?
The Ki was 0.025 µM.

For `CC(=O)Nc1ccc(NC(=O)c2c[nH]c3c2C(=O)CCC3)cc1` [Compound 12, N-(4-Acetamidophenyl)-4-oxo-4,5,6,7-tetrahydro-1H-indole-3-carboxamide], which Ki is on record?
The Ki was 0.028 µM.

Which Ki does the source give for `COc1ccc(NC(=O)c2c[nH]c3cccc(OCc4ccccc4)c23)c(F)c1` [Compound 14, N-(2-Fluoro-4-methoxyphenyl)-4-benzyloxy-1H-indole-3-carboxamide] here?
The Ki was 0.133 µM.

Same assay, conditions: Table 3, 0.5 nM 3H-RO15-1788, 30 min at 4° C., nonspecific binding with diazepam

Which Ki does the source give for `CC(C)Oc1ccc(NC(=O)c2c[nH]c3c2C(=O)CCC3)cc1` [Compound 22, N-(4-Isopropoxyphenyl)-4-oxo-4,5,6,7-tetrahydro-1H-indole-3-carboxamide] here?
The Ki was 0.053 µM.

`COc1ccc(NC(=O)c2c[nH]c3c2C(=O)CCC3)cc1F` [Compound 26, N-(3-Fluoro-4-methoxyphenyl)-4-oxo-4,5,6,7-tetrahydro-1H-indole-3-carboxamide] was tested. Which Ki did it give?
The Ki was 0.003 µM.

How did the Ki turn out when `COc1ccc(NC(=O)c2c[nH]c3c2C(=O)C(C)(C)CC3)c(F)c1` [Compound 30, N-(2-Fluoro-4-methoxyphenyl)-4-oxo-5,5-dimethyl-4,5,6,7-tetrahydro-1H-indole-3-carboxamide] was run?
Its Ki is 0.01 µM.

How did the Ki turn out when `O=C(Nc1ccccc1)c1c[nH]c2c1C(=O)CCC2` [Compound 35, N-Phenyl-4-oxo-4,5,6,7-tetrahydro-1H-indole-3-carboxamide] was run?
The Ki was 0.002 µM.

With `O=C(Nc1ccccc1F)c1c[nH]c2c1C(=O)CCC2` [Compound 46, N-(2-Fluorophenyl)-4-oxo-4,5,6,7-tetrahydro-1H-indole-3-carboxamide] as the molecule, how does the Ki read?
The Ki was 0.003 µM.

`O=C(Nc1ccccc1O)c1c[nH]c2c1C(=O)CCC2` [Compound 62, N-(2-Hydroxyphenyl)-4-oxo-4,5,6,7-tetrahydro-1H-indole-3-carboxamide] was tested. Which Ki did it give?
Its Ki is 0.0008 µM.

Which Ki does the source give for `Cc1ccc(NC(=O)c2c[nH]c3c2C(=O)CCC3)c(F)c1` [Compound 72, N-(2-Fluoro-4-methylphenyl)-4-oxo-4,5,6,7-tetrahydro-1H-indole-3-carboxamide] here?
The Ki was 0.026 µM.

How did the Ki turn out when `CNc1ccc(NC(=O)c2c[nH]c3c2C(=O)CCC3)cc1` [Compound 74, N-[4-(Methylamino)phenyl]-4-oxo-4,5,6,7-tetrahydro-1H-indole-3-carboxamide] was run?
The Ki was 0.018 µM.

`CC1(C)CCc2[nH]cc(C(=O)Nc3ccccc3)c2C1=O` [Compound 80, N-Phenyl-4-oxo-5,5-dimethyl-4,5,6,7-tetrahydro-1H-indole-3-carboxamide] was tested. Which Ki did it give?
The Ki was 0.031 µM.

With `CC1(C)CCc2[nH]cc(C(=O)Nc3ccccc3F)c2C1=O` [Compound 81, N-(2-Fluorophenyl)-4-oxo-5,5-dimethyl-4,5,6,7-tetrahydro-1H-indole-3-carboxamide] as the molecule, how does the Ki read?
Its Ki is 0.014 µM.

`CC1(C)CCc2[nH]cc(C(=O)Nc3ccc(O)cc3)c2C1=O` [Compound 86, N-(4-Hydroxyphenyl)-4-oxo-5,5-dimethyl-4,5,6,7-tetrahydro-1H-indole-3-carboxamide] was tested. Which Ki did it give?
The Ki was 0.002 µM.

For `O=C(Nc1ccccc1F)c1c[nH]c2c1C(=O)CCCC2` [Compound 93, N-(2-Fluorophenyl)-4-oxo-1,4,5,6,7,8-hexahydro-cyclohepta[b]pyrrole-3-carboxamide], which Ki is on record?
Its Ki is 0.006 µM.

For `COc1cccc(NC(=O)c2c[nH]c3c2C(=O)CCCC3)c1` [Compound 96, N-(3-Methoxyphenyl)-4-oxo-1,4,5,6,7,8-hexahydro-cyclohepta[b]pyrrole-3-carboxamide], which Ki is on record?
The Ki was 0.029 µM.

With `CCOc1ccc(NC(=O)c2c[nH]c3c2C(=O)CCCC3)c(F)c1` [Compound 102, N-(2-Fluoro-4-ethoxyphenyl)-4-oxo-1,4,5,6,7,8-hexahydro-cyclohepta[b]pyrrole-3-carboxamide] as the molecule, how does the Ki read?
The Ki was 0.037 µM.
